Results on 19 molecules are retold here after patent publication US8247556B2, “Method for preparing 6-substituted-7-aza-indoles” (Amgen Inc., priority 2005, dated 2012).

Experiment [1] concerns VEGF-stimulated HUVEC proliferation (Human Umbilical Vein Endothelial cells). Description: HUVEC Proliferation Assay. Type of experiment: cell-based. Particulars: VEGF 50 ng/mL, 72 h, CyQuant fluorescent dye, read-out: inhibited VEGF-stimulated HUVEC proliferation at a level. Put shortly: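 HUVEC (passage 2–3) were seeded in DMEM+10% FBS for 22 h, then pre-incubated 2–3 h with 5-point, 5-fold compound dilutions (0.25% DMSO). They were then stimulated with VEGF (50 ng/mL final) for 72 h at 37 °C. Proliferation was read by CyQuant fluorescence (485/530 nm) after freeze-thaw, and IC50 came from a 4-parameter fit.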

Experiment [2] concerns the target T1, CYP 3A4 (Homo sapiens, UniProt P08684).
T1 construct: followed by 222.2 ml of 20 mg/mL HLM (BD Gentest); tissue BD Gentest; host or cells: human liver microsomes
Description: Human Liver Microsome CYP 3A4 Inhibition. Type of experiment: in vitro ADME. To be noted: human liver microsomes, midazolam substrate; read-out: inhibited CYP3A4 microsomes, IC50. The method, then: Determining the IC-50 for Human Liver Microsome CYP 3A4 Inhibition
Postassium Phosphate Buffer pH 7.4 (39.667 mL) is chilled in an ice bath and added to a 50 ml plastic tube. A 2 mM midazolam solution is prepared. 111.1 ul of 2 mM midazolam is added to the buffer followed by 222.2 ml of 20 mg/mL HLM (BD Gentest). The incubation mixture was gently inverted and equilibrated at 37° C. for 5 min. A stock inhibitor solution is prepared, such as in DMSO. Incubation mixture (801 ul) is added into 96-well, 1.2 mL plastic tubes. Inhibitor is added at various concentrations (e.g. 30 uM to 120 nM). The tubes are sealed and mix by inverting 5 times gently. The incubation mixture containing inhibitor (270 uL) is added by aliquot into wells of a 1 mL, 96-well block (duplicate). The block is placed into a 37° C. water bath and equilibrated for 3 min. 10 mM NADPH (30 ml) is added to all samples. After 5 minutes, the reactions are stopped by adding 300 ml of Quench Solution [0.1% TFA in CH3CN]. 1′-OH-Midazolam-d313C (2 mg/mL 30 uL) is added, the block is gently vortexed then centrifuged at 3000 rpm for 10 minutes at 4° C. 50 μL of supernatant from all samples is added by aliquot into a shorter, 96-well block. The aliquoted supernatants are pooled with other assay(s) and HPLC Grade Water (50 ul) is added to all samples. After covering and shaking by vortex gently for 2 minutes, the solutions were analyzed by LC-MS (API 3000,5% MeOH w/0.1% AcOH to 95% MeOH w/0.1% AcOH). 37 nM ketoconazole is used as a control.
On the technique in general: Liver microsomes are a subcellular fraction often used to study metabolism.

Experiment [3] has as its target T2, CYP 2D6 (Homo sapiens, UniProt P10635).
T2 construct: followed by 555.6 ml of 20 mg/mL HLM (BD Gentest); tissue BD Gentest; host or cells: human liver microsomes
Description: Human Liver Microsome CYP 2D6 Inhibition. Type of experiment: in vitro ADME. Particulars: human liver microsomes, bufuralol substrate; read-out: inhibited CYP2D6 microsomes, IC50. The method, then: Determining the IC-50 for Human Liver Microsome CYP 2D6 Inhibition
Postassium Phosphate Buffer pH 7.4 (39.333 mL) is chilled in an ice bath and added to a 50 ml plastic tube. A 3.2 mM bufuralol solution is prepared. 111.1 ul of 3.2 mM bufuralol is added to the buffer followed by 555.6 ml of 20 mg/mL HLM (BD Gentest). The incubation mixture was gently inverted and equilibrated at 37° C. for 5 min. A stock inhibitor solution is prepared, such as in DMSO. Incubation mixture (801 ul) is added into 96-well, 1.2 mL plastic tubes. Inhibitor is added at various concentrations (e.g. 30 μM to […]). The tubes are sealed and mix by inverting 5 times gently. The incubation mixture containing inhibitor (270 μL) is added by aliquot into wells of a 1 mL, 96-well block (duplicate). The block is placed into a 37° C. water bath and equilibrated for 3 minutes. 10 mM NADPH (30 ml) is added to all samples. After 5 min, the reactions are stopped by adding 300 ml of Quench Solution [0.1% TFA in CH3CN]. 1′-OH-bufuralol-d9 (750 ng/mL 30 μL) is added, the block is gently vortexed then centrifuged at 3000 rpm for 10 min at 4° C. 50 μL of supernatant from all samples is added by aliquot into a shorter, 96-well block. The aliquoted supernatants are pooled with other assay(s) and HPLC Grade Water (50 μL) is added to all samples. After covering and shaking by vortex gently for 2 minutes, the solutions were analyzed by LC-MS (API 3000, 5% MeOH w/0.1% AcOH to 95% MeOH w/0.1% AcOH). 500 nM quinidine is used as a control.

pIC50: −log10 of the molar value.

T1 sequence (P08684 whole entry): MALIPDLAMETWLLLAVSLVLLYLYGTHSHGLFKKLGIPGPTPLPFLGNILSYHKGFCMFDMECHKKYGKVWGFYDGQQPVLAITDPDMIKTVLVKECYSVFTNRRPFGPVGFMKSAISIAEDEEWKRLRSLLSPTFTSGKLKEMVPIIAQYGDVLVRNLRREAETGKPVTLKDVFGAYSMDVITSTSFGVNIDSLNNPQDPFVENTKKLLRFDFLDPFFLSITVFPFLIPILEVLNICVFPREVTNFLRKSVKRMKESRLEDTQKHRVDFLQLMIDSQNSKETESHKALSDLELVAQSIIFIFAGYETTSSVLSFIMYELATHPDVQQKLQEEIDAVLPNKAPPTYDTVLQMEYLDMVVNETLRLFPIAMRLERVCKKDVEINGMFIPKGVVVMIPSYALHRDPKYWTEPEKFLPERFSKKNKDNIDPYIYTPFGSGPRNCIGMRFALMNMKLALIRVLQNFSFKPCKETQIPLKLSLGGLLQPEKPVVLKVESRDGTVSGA
T2 sequence (P10635 whole entry): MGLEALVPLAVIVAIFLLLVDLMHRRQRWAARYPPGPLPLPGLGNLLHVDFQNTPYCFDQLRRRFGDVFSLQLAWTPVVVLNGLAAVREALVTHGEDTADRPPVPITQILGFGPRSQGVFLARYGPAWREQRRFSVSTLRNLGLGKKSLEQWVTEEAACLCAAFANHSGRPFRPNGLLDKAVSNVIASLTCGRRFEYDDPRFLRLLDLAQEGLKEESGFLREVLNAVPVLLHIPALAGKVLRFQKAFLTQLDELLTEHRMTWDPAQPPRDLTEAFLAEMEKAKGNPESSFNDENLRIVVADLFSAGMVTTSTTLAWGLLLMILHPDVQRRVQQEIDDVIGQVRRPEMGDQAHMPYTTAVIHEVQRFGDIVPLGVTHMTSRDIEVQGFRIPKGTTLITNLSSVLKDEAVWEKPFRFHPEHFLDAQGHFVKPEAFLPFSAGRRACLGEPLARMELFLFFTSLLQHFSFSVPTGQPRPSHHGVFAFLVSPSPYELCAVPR

For `CC1(C)CNCc2cc(NC(=O)c3cccnc3NCc3ccnc4[nH]ccc34)ccc21` [Example 1, N-(4,4-Dimethyl-1,2,3,4-tetrahydroisoquinolin-7-yl)-2-[(1H-pyrrolo[2,3-b]pyridin-4-ylmethyl)amino]nicotinamide], the pIC50 in experiment [1] is above 6.30; in experiment [2] it was 5.01; in experiment [3], 5.00.

Consider `CC(C)(C)c1ccc(NC(=O)c2cccnc2NCc2ccnc3[nH]ccc23)cc1` [Example 5, N-(4-tert-Butylphenyl)-2-[(1H-pyrrolo[2,3-b]pyridin-4-ylmethyl)amino]nicotinamide], for which the results for the pIC50 in experiment [1], in experiment [2] and in experiment [3] were above 6.30, below 4.70 and below 4.70, respectively.

Take `CC1(C)CCNc2cc(NC(=O)c3cccnc3NCc3ccnc4[nH]ccc34)ccc21` [Example 9, N-(4,4-Dimethyl-1,2,3,4-tetrahydroquinolin-7-yl)-2-[(1H-pyrrolo[2,3-b]pyridin-4-ylmethyl)amino]nicotinamide]: the pIC50 is above 6.30 in experiment [1], below 4.70 in experiment [2] and below 4.70 in experiment [3].

As for `O=C(Nc1ccc2c(c1)CNCC21CC1)c1cccnc1NCc1ccnc2[nH]ccc12` [Example 10, N-(4-Spiro-1′-cyclopropane-1,2,3,4-tetrahydroisoquinolin-7-yl)-2-[(1H-pyrrolo[2,3-b]pyridin-4-ylmethyl)amino]nicotinamide], the figures for the pIC50 in experiment [1], in experiment [2] and in experiment [3] were above 6.30, below 4.70 and below 4.70, respectively.

For `O=C(Nc1cccc(C(O)(C(F)(F)F)C(F)(F)F)c1)c1cccnc1NCc1ccnc2[nH]ccc12` [Example 18, 2-[(1H-Pyrrolo[2,3-b]pyridin-4-ylmethyl)amino]-N-{3-[2,2,2-trifluoro-1-hydroxy-1-(trifluoromethyl)ethyl]phenyl}nicotinamide], the values for the pIC50 in experiment [1] and in experiment [2] were above 6.30 and below 4.70, respectively.

Regarding `CC1(C)CC(=O)Nc2cc(NC(=O)c3cccnc3NCc3ccnc4c3CCN4)ccc21` [Example 30, 2-[(2,3-Dihydro-1H-pyrrolo[2,3-b]pyridin-4-ylmethyl)amino]-N-(4,4-dimethyl-2-oxo-1,2,3,4-tetrahydroquinolin-7-yl)nicotinamide], the pIC50 in experiment [2] and in experiment [3] was below 4.70 in each case.

Consider `CC(=O)N1CC(C)(C)c2ccc(NC(=O)c3cccnc3NCc3c[nH]c4ncccc34)cc21` [Example 39, N-(1-acetyl-3,3-dimethyl-2,3-dihydro-1H-indol-6-yl)-2-[(1H-pyrrolo[2,3-b]pyridin-3-ylmethyl)amino]nicotinamide], for which the pIC50 is above 6.30 in experiment [1] and below 4.70 in experiment [2].

Consider `CN1CCC[C@H]1COc1cc(NC(=O)c2cccnc2NCc2ccnc3[nH]ccc23)ccc1C(F)(F)C(F)(F)F` [Example 65, N-(3-((((2S)-1-methyl-2-pyrrolidinyl)methyl)oxy)-4-(pentafluoroethyl)phenyl)-2-((1H-pyrrolo[2,3-b]pyridin-4-ylmethyl)amino)-3-pyridinecarboxamide], for which the pIC50 in experiment [1] was above 6.30; in experiment [2], below 4.70.

For `CN1CCC[C@@H]1COc1cc(NC(=O)c2cccnc2NCc2ccnc3[nH]ccc23)ccc1C(F)(F)F` [Example 68, N-(3-((((2R)-1-methyl-2-pyrrolidinyl)methyl)oxy)-4-(trifluoromethyl)phenyl)-2-((1H-pyrrolo[2,3-b]pyridin-4-ylmethyl)amino)-3-pyridinecarboxamide], the values for the pIC50 in experiment [1] and in experiment [2] were above 6.30 and below 4.70, respectively.

For the molecule `O=C(Nc1ccc(C(F)(F)C(F)(F)F)c(OC[C@@H]2CCCN2)c1)c1cccnc1NCc1ccnc2[nH]ccc12` [Example 72, N-(4-(Pentafluoroethyl)-3-(((2S)-2-pyrrolidinylmethyl)oxy)phenyl)-2-((1H-pyrrolo[2,3-b]pyridin-4-ylmethyl)amino)-3-pyridinecarboxamide], the pIC50 was above 6.30 in experiment [1] and below 4.70 in experiment [2].

For the molecule `Cc1nc2cc(NC(=O)c3cccnc3NCc3ccnc4c3CC(=O)N4)ccc2s1` [Example 74, N-(2-methyl-1,3-benzothiazol-5-yl)-2-(((2-oxo-2,3-dihydro-1H-pyrrolo[2,3-b]pyridin-4-yl)methyl)amino)-3-pyridinecarboxamide], the pIC50 in experiment [2] and in experiment [3] was below 4.70 throughout.

Take `CC(C)(C)c1ccc(NC(=O)c2cc(F)cnc2NCc2ccnc3[nH]ccc23)cc1` [Example 79, N-(4-(1,1-dimethylethyl)phenyl)-5-fluoro-2-((1H-pyrrolo[2,3-b]pyridin-4-ylmethyl)amino)-3-pyridinecarboxamide]: the pIC50 in experiment [2] and in experiment [3] was below 4.70 in each case.

`O=C(Nc1ccc(Br)cc1)c1cc(F)cnc1NCc1ccnc2[nH]ccc12` [Example 89, N-(4-bromophenyl)-5-fluoro-2-((1H-pyrrolo[2,3-b]pyridin-4-ylmethyl)amino)-3-pyridinecarboxamide]: the pIC50 in experiment [1] was above 6.30; in experiment [2], below 4.70.

Consider `CCc1nc2cc(NC(=O)c3cc(F)cnc3NCc3ccnc4[nH]ccc34)ccc2o1` [Example 92, N-(2-ethyl-1,3-benzoxazol-5-yl)-5-fluoro-2-((1H-pyrrolo[2,3-b]pyridin-4-ylmethyl)amino)-3-pyridinecarboxamide], for which the pIC50 was above 6.30 in experiment [1] and below 4.70 in experiment [2].

As for `O=C(Nc1cccc(C(F)(F)F)c1)c1cc(F)cnc1NCc1ccnc2[nH]ccc12` [Example 98, 5-fluoro-2-((1H-pyrrolo[2,3-b]pyridin-4-ylmethyl)amino)-N-(3-(trifluoromethyl)phenyl)-3-pyridinecarboxamide], the pIC50 was above 6.30 in experiment [1] and below 4.70 in experiment [2].

With `CC(C)c1nc2cc(NC(=O)c3cc(F)cnc3NCc3ccnc4[nH]ccc34)ccc2s1` [Example 103, 5-fluoro-N-(2-(1-methylethyl)-1,3-benzothiazol-5-yl)-2-((1H-pyrrolo[2,3-b]pyridin-4-ylmethyl)amino)-3-pyridinecarboxamide], the pIC50 in experiment [1] is above 6.30; in experiment [2], below 4.70.

Consider `O=C(Nc1ccc(C(F)(F)F)c(F)c1)c1cc(F)cnc1NCc1ccnc2[nH]ccc12` [Example 107, 5-fluoro-N-(3-fluoro-4-(trifluoromethyl)phenyl)-2-((1H-pyrrolo[2,3-b]pyridin-4-ylmethyl)amino)-3-pyridinecarboxamide], for which the pIC50 in experiment [1] is above 6.30; in experiment [2], below 4.70.

For `O=C(Nc1ccc(C(F)(F)F)c(Cl)c1)c1cc(F)cnc1NCc1ccnc2[nH]ncc12` [Example 127, N-(3-Chloro-4-(trifluoromethyl)phenyl)-5-fluoro-2-((1H-pyrazolo[3,4-b]pyridin-4-ylmethyl)amino)-3-pyridinecarboxamide], the pIC50 in experiment [1] is above 6.30; in experiment [2], below 4.70.

In the case of `CC(C)(C)c1ccc(NC(=O)c2cccnc2NCc2ccncc2)cc1` [N-(4-tert-Butylphenyl)-2-((4-pyridinylmethyl)amino)-3-pyridinecarboxamide, reference compound], the figures for the pIC50 in experiment [2] and in experiment [3] were 5.57 and 5.06, respectively.
